Measurements taken from US6461997B1, “Triazole sulfones having herbicidal activity” (Monsanto Technology LLC, priority 1999, dated 2002).

How the values were obtained:
[1] = tested on: CIRAR (canada thistle (seedling)); test: Pre-emergence herbicidal activity, warm season; format: in vivo, Cirsium arvense; settings: GR80 = lowest tested rate (300, 100, 30, 10 g/ha) with 80% or greater inhibition; approx. 14 days after treating; 30/21° C.
Summary of the method: (§1)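 GR80 values derive from percent inhibition relative to untreated plants, read roughly 14 days after sowing and pre-emergence soil-surface treatment (compound in 50:50 acetone/water; rates typically 10, 30, 100, 300 g/ha). Warm-season weeds grew at 30/21° C day/night, cool-season ones at 18/13° C; an asterisk marks activity without reaching 80% at the highest rate.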

[2] = tested on: soybean (GLYMX); test: Selectivity test, PPI, warm season crop; format: in vivo, Glycine max; settings: PPI application; for inhibition at 10 g/ha / inhibition at 30 g/ha / inhibition at 100 g/ha / inhibition at 300 g/ha / inhibition at 900 g/ha: Glycine max, read-out: Percent inhibition GLYMX
Experimental: (§2) A pre-prepared topsoil mixture (described above) was placed in a pot and compacted to a depth of 1.0 to 1.25 cm from the top of the pot. Seeds of each of several monocotyledonous and dicotyledonous annual plant species were placed on top of the soil. A sufficient quantity of soil to cover the seeds and level fill the pot was weighed into an open container. A known amount of the test compound was dissolved or suspended in an organic solvent and applied by spraying to this cover soil. The cover soil was thoroughly mixed to distribute the test compound throughout the cover soil, and was then applied as a cover layer over the seeds. Untreated soil was used as a cover layer for control pots. After treatment the plants were placed in a greenhouse where they received 0.64 cm of overhead irrigation. All subsequent watering consisted of a light overhead mist and/or subirrigation as needed for germination and growth. Tables 9 and 10 below relate to warm season plant species which were placed after pre-emergence treatment in a greenhouse with a 30/21° C. day/night temperature regime. Tables 11 and 12 below relates to cool season plant species placed after pre-emergence treatment in a greenhouse or growth chamber with an 18/13° C. day/night temperature regime. Only the compounds of Examples 1, 6, 8, 11, 13 and 15-20 were included in PPI tests.
(§3) Approximately 14 days after planting and treating, the plants were observed and herbicidal efficacy recorded as percent inhibition by comparison with untreated plants.
Additional pre-emergence and PPI tests were conducted by the procedures described above, on warm and cool season weed species in the presence of crop species, to assess herbicidal selectivity. Crop species included in warm season tests were corn (Zea mays, ZEAMX), rice (Oryza sativa, ORYSA) and soybean (Glycine max, GLYMX). Crop species included in cool season tests were wheat (Triticum aestivum, TRZAW), barley (Hordeunm vulgare, HORVX) and oilseed rape (Brassica napus, BRSNS).
Tables 15 and 16 relate to pre-emergence and PPI tests respectively on warm season species. Table 17 relates to pre-emergence tests on cool season species.

[3] = tested on: SORHA (johnsongrass (seedling)); test: Pre-plant incorporated (PPI) herbicidal activity, warm season; format: in vivo, Sorghum halepense; settings: for Percent inhibition SORHA / inhibition at 10 g/ha / inhibition at 30 g/ha / inhibition at 100 g/ha / inhibition at 300 g/ha / inhibition at 900 g/ha: PPI application; for inhibition at 10 g/ha / inhibition at 30 g/ha / inhibition at 100 g/ha / inhibition at 300 g/ha / inhibition at 900 g/ha: Sorghum halepense, read-out: Percent inhibition SORHA; for PPI activity GR80, SORHA: pre-plant incorporated, lowest tested rate with 80% or greater inhibition, about 14 days
Experimental: In another set of tests, the pre-plant incorporated (PPI) activity of compounds of this invention was evaluated on the same species as for the pre-emergence tests described above. In the PPI tests the following procedure, designed to simulate PPI application, was used.
as §2, §3

[4] = tested on: SASKR (russian thistle); test: Pre-emergence herbicidal activity, cool season; format: in vivo, Salsola kali; settings: lowest tested rate with 80% or greater inhibition; rates 300, 100, 30, 10 g/ha; about 14 days
Summary of the method: as §1

[5] = tested on: AGRRE (quackgrass (seedling)); test: Post-emergence herbicidal activity, cool season; format: in vivo, Elymus repens; settings: abraded plants sprayed at 300, 100, 30 and 10 g/ha; about 14 days after treatment
Experimental: (§4) In another set of tests, the post-emergence activity of compounds of this invention was evaluated on the cool season species listed above. The following procedure was used.
(§5) A pre-prepared topsoil mixture (described above) was placed in a pot and compacted to a depth of 1.0 to 1.25 cm from the top of the pot. Seeds of each of several monocotyledonous and dicotyledonous annual plant species were placed on top of the soil. The seeds were covered with a mixture of 50% topsoil and 50% Rediearth™ in sufficient quantity to level-fill the pots. The pots were then placed on a greenhouse bench and subirrigated as needed.
(§6) When plants growing from the seeds had emerged and reached a suitable growth stage for post-emergence treatment, typically 9 to 14 days after planting, above-ground parts of the plants were subjected to a pre-treatment involving abrasion to create greater opportunity for foliar uptake of subsequently applied compounds. Abrasion was performed using garnet 200w particles applied with a Sears Craftsman hand-held sandblaster operated at approximately 850 kPa (50 psig) pressure.
(§7) A known amount of each test compound dissolved or suspended in an appropriate organic solvent was diluted with a 50:50 mix of acetone and water and applied to the plants by spraying with a standard spray nozzle in a spray volume of […] at a spray pressure of 511 kPa (30 psig). Only the compounds of Examples 1, 8-15 and 17-22 were included in post-emergence tests. Application rates for these compounds were 300, 100, 30 and 10 g/ha. Control plants were abraded but not sprayed.
(§8) After treatment the plants were placed in a greenhouse with an 18/13° C. day/night temperature regime and were subsequently watered as needed for growth. Approximately 14 days after treatment, the plants were observed and herbicidal efficacy recorded as percent inhibition by comparison with control plants. GR80 values were assigned for each compound as described above for the pre-emergence tests.

[6] = tested on: BROTE (downy brome); test: Post-emergence herbicidal activity, cool season; format: in vivo, Bromus tectorum; settings: abraded plants sprayed at 300, 100, 30 and 10 g/ha; about 14 days after treatment
Experimental: as §4, §5, §6, §7, §8

Row | Compound | Pre-emergence activity (GR80) CIRAR [1] [g/ha] | Percent inhibition GLYMX ([2]; 30 g/ha) [%] | Percent inhibition GLYMX ([2]; 100 g/ha) [%] | Percent inhibition GLYMX ([2]; 300 g/ha) [%] | Percent inhibition GLYMX ([2]; 900 g/ha) [%] | Percent inhibition SORHA ([3]; 30 g/ha) [%] | Percent inhibition SORHA ([3]; 100 g/ha) [%] | Percent inhibition SORHA ([3]; 300 g/ha) [%] | Percent inhibition SORHA ([3]; 900 g/ha) [%] | Pre-emergence activity GR80, SASKR [4] | inhibition at 30 g/ha ([2]; 30 g/ha) [%] | inhibition at 100 g/ha ([2]; 100 g/ha) [%] | inhibition at 300 g/ha ([2]; 300 g/ha) [%] | inhibition at 900 g/ha ([2]; 900 g/ha) [%] | Post-emergence activity GR80, AGRRE [5] | inhibition at 30 g/ha ([3]; 30 g/ha) [%] | inhibition at 100 g/ha ([3]; 100 g/ha) [%] | inhibition at 300 g/ha ([3]; 300 g/ha) [%] | PPI activity GR80, SORHA [3] [g/ha] | Post-emergence activity GR80, BROTE [6] | further results
1 | CCN(CC)C(=O)n1cnc(S(=O)(=O)C(F)(F)F)n1 [Example 2] | 300 | 0 | 0 | 10 | 20 | 70 | 80 | 100 | 100 | 100 g/ha |  |  |  |  |  |  |  |  |  |  | 
2 | CCN(CC)C(=O)n1cnc(S(=O)(=O)C(F)(F)Br)n1 [Example 1, 3-(bromodifluoromethylsulfonyl)-1-(N,N-diethylcarbamoyl)-1,2,4-triazole] | 100 |  |  |  |  |  |  |  |  | 300 g/ha | 0 | 0 | 0 | 40 | [empty] | 50 | 100 | 100 | 30 | [empty] | inhibition at 10 g/ha ([2]; 10 g/ha): 0%; inhibition at 10 g/ha ([3]; 10 g/ha): 70%; inhibition at 900 g/ha ([3]; 900 g/ha): 100%
3 | CCSC(F)(F)S(=O)(=O)c1ncn(C(=O)N(CC)CC)n1 [Example 8, 1-(N,N-diethylcarbamoyl)-3-[difluoro(ethylthio)methylsulfonyl]-1,2,4-triazole] | 300 |  |  |  |  |  |  |  |  | 300 g/ha | 0 | 10 | 40 | 65 | [empty] | 100 | 90 | 100 | 30 | [empty] | inhibition at 900 g/ha ([3]; 900 g/ha): 100%
4 | CCN(CC)C(=O)n1cnc(S(=O)(=O)C(F)(F)C(F)F)n1 [Example 16] |  | 0 | 10 | 10 | 80 | 70 | 100 | 100 | 100 | 100 g/ha |  |  |  |  |  |  |  |  | 10 |  | Percent inhibition GLYMX ([2]; 10 g/ha): 0%; Percent inhibition SORHA ([3]; 10 g/ha): 0%
5 | CCN(CC)C(=O)n1cnc(S(=O)(=O)C(F)(F)Cl)n1 [Example 3] | 30 | 0 | 0 | 0 | 15 | 99 | 100 | 100 | 100 | [empty] |  |  |  |  |  |  |  |  |  |  | 
6 | CCN(CC)C(=O)n1cnc(S(=O)(=O)C(F)(F)C(F)(F)SC)n1 [Example 14] | 300 |  |  |  |  |  |  |  |  | [empty] |  |  |  |  | [empty] |  |  |  |  | [empty] | 
7 | C=CCC(F)(F)S(=O)(=O)c1ncn(C(=O)N(CC)CC)n1 [Example 17, 1-(N,N-diethylcarbamoyl)-3-[(1,1-difluoro-3-butenyl)sulfonyl]-1,2,4-triazole] |  |  |  |  |  |  |  |  |  | 100 g/ha | 0 | 0 | 20 | 80 | [empty] | 60 | 100 | 100 | 10 | [empty] | inhibition at 10 g/ha ([2]; 10 g/ha): 0%; inhibition at 10 g/ha ([3]; 10 g/ha): 95%; inhibition at 900 g/ha ([3]; 900 g/ha): 100%
8 | CCN(CC)C(=O)n1cnc(S(=O)(=O)C(F)(F)C(F)(F)Br)n1 [Example 4] | 30 | 0 | 0 | 0 | 10 | 60 | 100 | 100 | 100 | 30 g/ha |  |  |  |  |  |  |  |  |  |  | 
9 | CCN(CC)C(=O)n1cnc(S(=O)(=O)C(F)(F)C(=O)c2ccccc2)n1 [Example 6] | 300 |  |  |  |  |  |  |  |  | [empty] |  |  |  |  |  |  |  |  | 100 |  | 
10 | CCN(CC)C(=O)n1cnc(S(=O)(=O)C(F)(F)SCCOC)n1 [Example 13] |  | 0 | 0 | 30 | 70 | 100 | 90 | 100 | 100 | [empty] |  |  |  |  | [empty] |  |  |  | 100 | [empty] | Percent inhibition GLYMX ([2]; 10 g/ha): 0%; Percent inhibition SORHA ([3]; 10 g/ha): 30%
11 | CCN(CC)C(=O)n1cnc(S(=O)(=O)C(F)F)n1 [Example 15, 1-(N,N-diethylcarbamoyl)-3-(difluoromethylsulfonyl)-1,2,4-triazole] | 30 |  |  |  |  |  |  |  |  |  | 0 | 0 | 15 | 65 | [empty] | 20 | 100 | 100 | 30 | [empty] | inhibition at 10 g/ha ([2]; 10 g/ha): 0%; inhibition at 10 g/ha ([3]; 10 g/ha): 40%; inhibition at 900 g/ha ([3]; 900 g/ha): 95%
